Laboratory results as given in PubChem BioAssay AID1918930 (Molecular Pharmacology Branch, DTP, NCI, 2023).

Test system: 233499-124-R-J3-PDC complex spheroid viability, % test/control
Assay: Anticancer human tumor 233499-124-R-J3-PDC patient-derived colon adenocarcinoma cell line growth inhibition
Details: for IC50: curve of first compound; for viability, T/C: stronger effect = lower value
Excerpt: Multicellular complex tumor spheroid response to LSD1 Inhibitor Iadademstat in combination with a variety of drugs and investigational agents in selected tumor cell lines
The current study was undertaken to assess response to LSD1 inhibitors in combination with standard-of-care drugs and investigational agents in solid tumor complex spheroid models as well as in the K-562 leukemia. Complex spheroids include a stromal component modeled by human endothelial cells (HUVEC) and fibroblasts modeled by human mesenchymal stem cells (MSCs). The concentration ranges selected for each drug and investigational agent were based upon clinically achievable concentrations if the clinical Cmax of the agent was known.
Compounds. The drugs and investigational agents used in this study are listed on Table 1. All of the agents used, including staurosporine (NSC755774) and gemcitabine (NSC613327), were obtained from the Developmental Therapeutics Program, NCI. FDA-approved anticancer drugs are available from the NCI at http://dtp.nci.nih.gov/branches/dscb/oncology_drugset_explanation.html. Drugs and investigational agents were >95% pure by proton nuclear magnetic resonance (NMR) and liquid chromatography/mass spectrometry (LC/MS). Stock solutions were prepared at 400x in DMSO, stored at -70 degrees C, and diluted in fresh medium prior to their use. The final concentration of DMSO in cell culture wells never exceeded 0.25% (v/v). The FDA-approved anticancer drug set is available from the Developmental Therapeutics Program at https://dtp.cancer.gov/organization/dscb/obtaining/available_plates.htm. All drugs and investigational agents were tested over a range starting from a high concentration at or near the clinical Cmax and decreasing in half-log increments. If the clinical Cmax for an agent had not been determined, the highest concentration tested was 10 microM.
Cell Lines. The patient-derived cancer cell (PDC) lines: 292921-168-R-J2-PDC, K24384-001-R-PDC, and 521955-158-R2-J5-PDC pancreatic carcinomas, 556581-035-R-J1 ovarian carcinoma, 324938-238-R-J1-PDC, 855422-203-R-J1-PDC and 883617-216-R-J1-PDC urothelial bladder carcinomas, 743489-274-T-PDC renal cell carcinoma, 138582-R-J1 Merkel cell tumor, K60290-347-R-J1 and K57222-313-R-J1-PDC glioblastomas, 653999-131-R-J2-PDC, LG0703-F948-PDC, and 349418-098-R-PDC non-small cell lung carcinomas, 885512-296-R-J2-PDC, 171881-019-R-J1-PDC breast carcinomas and 186277-243-T-J2-PDC and 233499-124-R-J2-PDC colon carcinomas were obtained from the NCI Patient-Derived Models Repository (PDMR, https://pdmr.cancer.gov). The established cell lines NCI/ADR-RES (RRID:CVCL_14520 and OVCAR-5 (RRID:CVCL_1628) ovarian carcinomas, 786-O (RRID:CVCL_1051) and A498 (RRID:CVCL_A498) renal cell carcinoma, NCI-H211 (ATCC, cat. CRL-5824; RRID:CVCL_1529), NCI-H196 (ATCC, cat. CRL-5823, RRID:CVCL_1509), SW 1271 (ATCC, cat. CRL-2177, RRID:CVCL_1716) and NCI-H1876 (ATCC, cat. CRL-5902, RRID:CVCL_1503) small cell lung carcinomas, MDA-MB-231 (RRID:CVCL_0062) and MDA-MB-468 (RRID:CVCL_0419)breast carcinomas (10-12). Pooled donor human umbilical vein endothelial cells (HUVEC, Lonza, cat. CC-2519) and human mesenchymal stem cells (hMSC, Lonza, cat. PT-2501) were purchased from Lonza (Walkersville, MD).
Cell Culture. All cells were maintained in an incubator at 37 degrees C and 5% CO2 with 95% humidity. The PDC lines were cultured according to standard operating procedures established by the NCI PDMR (https://pdmr.cancer.gov). Briefly all PDCs were thawed and cultured in Matrigel-coated flasks prepared with a working solution of 1X Ham's F-12 nutrient mix, without supplementation (Invitrogen, Waltham, MA, cat. 11765054), 100 U/mL penicillin-streptomycin (Invitrogen, cat. 15140122), and 2.5% Matrigel (Corning Inc., Corning, NY, cat. 354248) for the first three passages. […]

[1] = second compound 0.1 µM, first compound 0.000949 µM
[2] = second compound 0.1 µM, first compound 0.003 µM
[3] = second compound 0.1 µM, first compound 0.00949 µM
[4] = second compound 0.1 µM, first compound 0.03 µM
[5] = second compound 0.1 µM, first compound 0.0949 µM
[6] = second compound 0.1 µM, first compound 0.3 µM
[7] = second compound 0.316 µM, first compound 0.000949 µM
[8] = second compound 0.316 µM, first compound 0.003 µM
[9] = second compound 0.316 µM, first compound 0.00949 µM
[10] = second compound 0.316 µM, first compound 0.03 µM
[11] = second compound 0.316 µM, first compound 0.0949 µM
[12] = second compound 0.316 µM, first compound 0.3 µM
[13] = second compound 1 µM, first compound 0.000949 µM
[14] = second compound 1 µM, first compound 0.003 µM
[15] = second compound 1 µM, first compound 0.00949 µM
[16] = second compound 1 µM, first compound 0.03 µM
[17] = second compound 1 µM, first compound 0.0949 µM
[18] = second compound 1 µM, first compound 0.3 µM
[19] = second compound 3.16 µM, first compound 0.000949 µM
[20] = second compound 3.16 µM, first compound 0.003 µM
[21] = second compound 3.16 µM, first compound 0.00949 µM
[22] = second compound 3.16 µM, first compound 0.03 µM
[23] = second compound 3.16 µM, first compound 0.0949 µM
[24] = second compound 3.16 µM, first compound 0.3 µM
[25] = second compound 10 µM, first compound 0.000949 µM
[26] = second compound 10 µM, first compound 0.003 µM
[27] = second compound 10 µM, first compound 0.00949 µM
[28] = second compound 10 µM, first compound 0.03 µM
[29] = second compound 10 µM, first compound 0.0949 µM
[30] = second compound 10 µM, first compound 0.3 µM
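Also: spheroids exposed to agents for one week before readout.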

SMILES: CCc1c2c(nc3ccc(O)cc13)-c1cc3c(c(=O)n1C2)COC(=O)[C@]3(O)CC + NC1CC1c1ccc(-c2cccc(O)c2)cc1
- IC50 (second compound 0.1 µM): 25.6 nM
- IC50 (second compound 0.316 µM): 22.6 nM
- IC50 (second compound 1 µM): 24.5 nM
- IC50 (second compound 3.16 µM): 27.6 nM
- IC50 (second compound 10 µM): 50.3 nM
- viability, T/C [1]: 88%
- viability, T/C [2]: 122%
- viability, T/C [3]: 90.8%
- viability, T/C [4]: 44.2%
- viability, T/C [5]: 27.7%
- viability, T/C [6]: 29.5%
- viability, T/C [7]: 103%
- viability, T/C [8]: 112%
- viability, T/C [9]: 88.1%
- viability, T/C [10]: 38.3%
- viability, T/C [11]: 25.2%
- viability, T/C [12]: 30.3%
- viability, T/C [13]: 70.4%
- viability, T/C [14]: 112%
- viability, T/C [15]: 101%
- viability, T/C [16]: 40.6%
- viability, T/C [17]: 19.6%
- viability, T/C [18]: 30.4%
- viability, T/C [19]: 77.6%
- viability, T/C [20]: 109%
- viability, T/C [21]: 98.6%
- viability, T/C [22]: 46.4%
- viability, T/C [23]: 31.5%
- viability, T/C [24]: 24.6%
- viability, T/C [25]: 65.1%
- viability, T/C [26]: 88.5%
- viability, T/C [27]: 105%
- viability, T/C [28]: 59.7%
- viability, T/C [29]: 43.8%
- viability, T/C [30]: 32.4%

SMILES: Nc1ccn(C2OC(CO)C(O)C2(F)F)c(=O)n1 (stereo not given) + NC1CC1c1ccc(-c2cccc(O)c2)cc1
- IC50 (second compound 0.1 µM): 87.3 nM
- IC50 (second compound 0.316 µM): 73.4 nM
- IC50 (second compound 1 µM): 32.8 nM
- IC50 (second compound 3.16 µM): 55.8 nM
- IC50 (second compound 10 µM): 34.8 nM
- viability, T/C [1]: 111%
- viability, T/C [2]: 97.9%
- viability, T/C [3]: 104%
- viability, T/C [4]: 72.4%
- viability, T/C [5]: 49.4%
- viability, T/C [6]: 45.2%
- viability, T/C [7]: 85.1%
- viability, T/C [8]: 96.1%
- viability, T/C [9]: 75.3%
- viability, T/C [10]: 69.9%
- viability, T/C [11]: 41%
- viability, T/C [12]: 41.7%
- viability, T/C [13]: 96.1%
- viability, T/C [14]: 84.7%
- viability, T/C [15]: 78.1%
- viability, T/C [16]: 49.2%
- viability, T/C [17]: 41.2%
- viability, T/C [18]: 38.7%
- viability, T/C [19]: 92.3%
- viability, T/C [20]: 95.6%
- viability, T/C [21]: 72.7%
- viability, T/C [22]: 60.1%
- viability, T/C [23]: 39.1%
- viability, T/C [24]: 46.2%
- viability, T/C [25]: 83.5%
- viability, T/C [26]: 69.4%
- viability, T/C [27]: 74.8%
- viability, T/C [28]: 52.5%
- viability, T/C [29]: 32.8%
- viability, T/C [30]: 35.1%

SMILES: O=C(c1cc(Cc2n[nH]c(=O)c3ccccc23)ccc1F)N1CCN(C(=O)C2CC2)CC1 + NC1CC1c1ccc(-c2cccc(O)c2)cc1
- IC50 (second compound 0.1 µM): > 10000 nM
- IC50 (second compound 0.316 µM): > 10000 nM
- IC50 (second compound 1 µM): > 10000 nM
- IC50 (second compound 3.16 µM): > 10000 nM
- IC50 (second compound 10 µM): > 10000 nM
- viability, T/C (second compound 0.1 µM, first compound 0.0316 µM): 96.9%
- viability, T/C (second compound 0.1 µM, first compound 0.1 µM): 92.2%
- viability, T/C (second compound 0.1 µM, first compound 0.316 µM): 98.5%
- viability, T/C (second compound 0.1 µM, first compound 1 µM): 97.8%
- viability, T/C (second compound 0.1 µM, first compound 3.16 µM): 100%
- viability, T/C (second compound 0.1 µM, first compound 10 µM): 73.2%
- viability, T/C (second compound 0.316 µM, first compound 0.0316 µM): 94.2%
- viability, T/C (second compound 0.316 µM, first compound 0.1 µM): 106%
- viability, T/C (second compound 0.316 µM, first compound 0.316 µM): 106%
- viability, T/C (second compound 0.316 µM, first compound 1 µM): 87.2%
- viability, T/C (second compound 0.316 µM, first compound 3.16 µM): 91.1%
- viability, T/C (second compound 0.316 µM, first compound 10 µM): 79.3%
- viability, T/C (second compound 1 µM, first compound 0.0316 µM): 78.3%
- viability, T/C (second compound 1 µM, first compound 0.1 µM): 91.6%
- viability, T/C (second compound 1 µM, first compound 0.316 µM): 91.6%
- viability, T/C (second compound 1 µM, first compound 1 µM): 79%
- viability, T/C (second compound 1 µM, first compound 3.16 µM): 73.4%
- viability, T/C (second compound 1 µM, first compound 10 µM): 68.5%
- viability, T/C (second compound 3.16 µM, first compound 0.0316 µM): 87.6%
- viability, T/C (second compound 3.16 µM, first compound 0.1 µM): 83.4%
- viability, T/C (second compound 3.16 µM, first compound 0.316 µM): 71.6%
- viability, T/C (second compound 3.16 µM, first compound 1 µM): 84.6%
- viability, T/C (second compound 3.16 µM, first compound 3.16 µM): 66.5%
- viability, T/C (second compound 3.16 µM, first compound 10 µM): 63%
- viability, T/C (second compound 10 µM, first compound 0.0316 µM): 77.6%
- viability, T/C (second compound 10 µM, first compound 0.1 µM): 75.1%
- viability, T/C (second compound 10 µM, first compound 0.316 µM): 71.9%
- viability, T/C (second compound 10 µM, first compound 1 µM): 68%
- viability, T/C (second compound 10 µM, first compound 3.16 µM): 58.6%
- viability, T/C (second compound 10 µM, first compound 10 µM): 62.7%
